Results as given in the NIST ThermoML archive (doi:10.1016/j.fluid.2014.07.021).
± gives the expanded uncertainty stated by the source.

Settings: Crystal; DTA

CCCCCCCCCCCCCCCCCCCCO [1-eicosanol]
Normal melting temperature: 64 ± 2 °C

CCCCCCCCCCCCCCO [1-tetradecanol]
Normal melting temperature: 38 ± 2 °C
